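Interpolation was linear, between the two tested concentrations surrounding the appropriate level; five concentrations were tested over 48 hours in 96-well plates. At the GI50, growth is halved.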 Activity calls are given as the source filed them. No stated cut-off is given here; in the data, active = GI50 up to about 1.1 µM and inactive = higher.
Columns and labels:
Assay in all cases: DTP human tumour cell line panel, 48 h
[1] = tested on: 786-0
[2] = tested on: ACHN
[3] = tested on: HCC 2998
[4] = tested on: HL-60
[5] = tested on: MDA-MB-231
[6] = tested on: MDA-MB-435
[7] = tested on: MDA-N
[8] = tested on: NCI/ADR-RES
[9] = tested on: PC-3
[10] = tested on: SR
[11] = tested on: T47D
[12] = tested on: TK-10
[13] = tested on: BT-549
[14] = tested on: DU-145
[15] = tested on: HOP-92
[16] = tested on: Hs-578T
[17] = tested on: MCF7
[18] = tested on: OVCAR-8
[19] = tested on: RPMI-8226
[20] = tested on: DMS-114

Measured: GI50

C=Cc1cc2c(cc1O)CC[C@@H]1[C@@H]2CC[C@]2(C)[C@@H](O)CC[C@@H]12
inactive: [1] 4.13 µM | [2] 7.23 µM | [3] 11.2 µM | [4] 2.67 µM | [5] 5.33 µM | [7] 1.45 µM | [8] 1.77 µM | [9] 11.6 µM | [10] 1.97 µM | [11] 8.79 µM | [12] 12.2 µM
active: [6] 1.09 µM

CO/N=C1/c2sccc2[C@H](NC(=O)CNC(=O)OC(C)(C)C)[C@@H]1O
inactive: [13] > 100 µM | [14] > 100 µM | [3] > 100 µM | [4] > 100 µM | [15] > 100 µM | [16] > 100 µM | [17] > 100 µM | [5] > 100 µM | [6] > 100 µM | [7] > 100 µM | [8] > 100 µM | [18] > 100 µM | [9] > 100 µM | [10] > 100 µM | [11] > 100 µM | [12] > 100 µM

Cc1c(N2C(=O)CS(=O)(=O)C2c2cccc(Oc3ccccc3)c2)c(=O)n(-c2ccccc2)n1C (stereo not given)
inactive: [2] > 100 µM | [13] 29.5 µM | [14] 71.6 µM | [4] 14.1 µM | [15] 44.2 µM | [16] 30.9 µM | [17] 36.9 µM | [5] > 100 µM | [6] 36.9 µM | [7] 24.8 µM | [8] 61.2 µM | [18] 57.3 µM | [9] 43.3 µM | [19] 27.2 µM | [11] 29 µM | [12] 11.2 µM

O=c1cnn(CCOCP(=O)(O)O)c(=O)[nH]1
inactive: [2] > 100 µM | [13] > 100 µM | [14] > 100 µM | [3] > 100 µM | [15] > 100 µM | [16] > 100 µM | [17] > 100 µM | [5] > 100 µM | [6] > 100 µM | [7] > 100 µM | [8] > 100 µM | [18] > 100 µM | [9] > 100 µM | [19] > 100 µM | [11] > 100 µM | [12] > 100 µM

CC(C)CCCC(C)[C@H]1CC[C@H]2[C@@H]3CC[C@H]4C[C@@H](CCC=C(c5cc(Cl)c(O)c(C(=O)OC(C)(C)C)c5)c5cc(Cl)c(O)c(C(=O)OC(C)(C)C)c5)CC[C@]4(C)[C@H]3CC[C@]12C (stereo not given in full)
inactive: [1] > 50 µM | [13] > 50 µM | [14] > 50 µM | [3] > 50 µM | [4] > 50 µM | [16] > 50 µM | [17] > 50 µM | [5] > 50 µM | [6] > 50 µM | [7] > 50 µM | [8] > 50 µM | [9] > 50 µM | [19] > 50 µM | [11] > 50 µM

CCN(CC)CCNCc1cc(Cl)cc2c1OCOC2
inactive: [2] > 10 µM | [14] > 10 µM | [3] > 10 µM | [4] > 10 µM | [16] > 10 µM | [17] > 10 µM | [5] > 10 µM | [6] > 10 µM | [7] > 10 µM | [8] > 10 µM | [18] > 10 µM | [9] > 10 µM | [19] > 10 µM | [10] > 10 µM | [11] > 10 µM | [12] > 10 µM

CN(C)c1ccc(/C=N/c2ccc(Oc3ccc(Cl)cc3)c(Cl)c2)cc1
inactive: [2] 28.6 µM | [13] 16.6 µM | [14] 27.5 µM | [3] 17.7 µM | [4] 11.7 µM | [15] 18.2 µM | [16] 15.4 µM | [17] 42.7 µM | [5] 16.5 µM | [6] 24.2 µM | [7] 21.7 µM | [8] 16.2 µM | [18] 17.5 µM | [9] 15.2 µM | [19] 11.4 µM | [10] 10.9 µM | [11] 16.8 µM | [12] 32.4 µM

CCCO[C@@H]1[C@@H](OC(C)=O)[C@@H](OC(C)=O)C(C)(C)/C=C/[C@H](C)C(=O)[C@@]2(OC(C)=O)C[C@@](C)(OC(C)=O)[C@H](OC(C)=O)[C@@H]2[C@H]2OC(=O)CC[C@@]12OC(=O)c1ccccc1
inactive: [2] > 25 µM | [13] 22.9 µM | [14] > 25 µM | [3] 18.5 µM | [4] 2.64 µM | [15] > 25 µM | [16] 12.1 µM | [17] 23.6 µM | [5] > 25 µM | [6] 15.2 µM | [7] 14.9 µM | [8] > 25 µM | [18] > 25 µM | [9] 20.4 µM | [11] > 25 µM | [12] > 25 µM

COc1ccc(CC/N=C2\CCC(C(=O)NCCc3ccc(OC)c(OC)c3)N2)cc1OC (stereo not given)
inactive: [1] > 100 µM | [2] > 100 µM | [20] > 100 µM | [3] > 100 µM | [4] > 100 µM | [15] > 100 µM | [18] > 100 µM | [19] > 100 µM | [12] > 100 µM

CCn1cc(C(c2ccc(Cl)cc2)n2ccnc2)c2cc(Br)ccc21 (stereo not given)
inactive: [2] 12.8 µM | [13] 14.8 µM | [14] 16.6 µM | [3] 13.2 µM | [15] 4.89 µM | [16] 18.7 µM | [17] 10.1 µM | [5] 14.8 µM | [6] 13.6 µM | [7] 20.1 µM | [8] 12.6 µM | [18] 10.8 µM | [9] 9.55 µM | [19] 3.48 µM | [10] 4.35 µM | [12] 16.1 µM

S=c1nc(Nc2ccc(Br)cc2)c2c3c(sc2[nH]1)CN(N1CCc2c(sc4[nH]c(=S)nc(Nc5ccc(Br)cc5)c24)C1)CC3
inactive: [1] 8.13 µM | [2] 21.1 µM | [13] > 50 µM | [14] 33.7 µM | [3] 23.1 µM | [4] 17.6 µM | [16] > 50 µM | [17] 20.3 µM | [5] 17.9 µM | [6] 15.2 µM | [7] 12.6 µM | [8] > 50 µM | [18] > 50 µM | [9] 38.8 µM | [19] 19.2 µM | [10] 27.5 µM | [11] 8.79 µM | [12] > 50 µM

O=C1C(c2ccc(C3=[N+]([O-])c4cc([N+](=O)[O-])ccc4C3=O)cc2)=[N+]([O-])c2cc([N+](=O)[O-])ccc21
inactive: [1] 58.9 µM | [2] > 10 µM | [20] > 10 µM | [3] > 10 µM | [4] > 10 µM | [15] > 10 µM | [18] > 10 µM | [19] > 10 µM | [12] > 10 µM

Cc1cc(C)c2c(n1)S(=O)(=O)N(CCCN1CCN(c3cccc(C(F)(F)F)c3)CC1)C(C(=O)c1ccccc1)=C2O
inactive: [1] 4.48 µM | [2] 9.04 µM | [13] 16 µM | [14] 13.4 µM | [4] 2.61 µM | [15] 5.19 µM | [16] 17.6 µM | [17] 7.13 µM | [5] 20.3 µM | [6] 6.11 µM | [7] 5.5 µM | [8] 3.21 µM | [18] 5.66 µM | [9] 9.82 µM | [10] 2.93 µM | [11] 13.1 µM | [12] 10.5 µM

NC(=S)N/N=C1\C(=O)Nc2c(Cl)cc(Cl)cc21
inactive: [1] 22.9 µM | [2] 37.4 µM | [13] 21 µM | [3] 34.5 µM | [4] 12.4 µM | [15] 72.1 µM | [16] 24 µM | [17] 28 µM | [5] 22.9 µM | [6] 16.7 µM | [7] 17.4 µM | [8] 17.8 µM | [18] 18.1 µM | [9] 17.8 µM | [10] 16.3 µM | [12] 73.1 µM

C1#Cc2ccccc2OCCOc2ccccc2C#Cc2ccccc2OCCOc2ccccc21
inactive: [1] 10.3 µM | [2] 15 µM | [13] 16.6 µM | [14] > 100 µM | [4] 61.2 µM | [16] 22.5 µM | [17] > 100 µM | [5] 17.7 µM | [6] > 100 µM | [7] > 100 µM | [8] 29.4 µM | [18] 13.8 µM | [9] 52 µM | [19] 16.4 µM | [11] 49.5 µM | [12] 28.8 µM

CC1=NN(C(=O)c2ccc(Cl)cc2)C(=O)C1/N=N/c1ccc(S(=O)(=O)Nc2ncccn2)cc1 (stereo not given)
active: [15] < 0.01 µM | [9] 0.217 µM
inactive: [1] > 100 µM | [2] > 100 µM | [13] > 100 µM | [14] > 100 µM | [4] > 100 µM | [16] > 100 µM | [17] > 100 µM | [5] > 100 µM | [6] > 100 µM | [8] > 100 µM | [18] > 100 µM | [10] > 100 µM | [11] > 100 µM | [12] > 100 µM

COc1ccc2[nH]c(Cl)c(/C=C3/C(=O)Nc4cc(C)c(OC)cc43)c2c1
inactive: [1] 5.68 µM | [2] 9.53 µM | [13] 3.2 µM | [14] 14.3 µM | [3] 4.89 µM | [4] 1.91 µM | [15] 11.7 µM | [16] 3.81 µM | [17] 3.8 µM | [5] 3.81 µM | [6] 1.23 µM | [7] 1.58 µM | [8] 2.44 µM | [18] 7.71 µM | [9] 3.33 µM | [19] 4.32 µM | [10] 3.08 µM | [11] 5.96 µM | [12] 9.18 µM

Source: ChEMBL document CHEMBL1201862, “PubChem BioAssay data set” (2004)
